Results as given in patent publication US12144788B2, “Visual cycle modulators” (CASE WESTERN RESERVE UNIVERSITY, priority 2017, dated 2024).
“Also recorded” adds a separate entry of the source.

What was measured:
[1] = test system: visual chromophore regeneration in C57BL6J mouse eyes; assay: visual chromophore recovery assay (ocular 11-cis-retinal by HPLC after bleach); type: in vivo
Procedure: FIG. 4 illustrates inhibition of visual chromophore regeneration in C57BL6J mouse eyes by MB compounds. The MB drugs were administrated to mice by oral gavage 24 h prior to light exposure for 10 min. Then all mice recovered under darkness for 6 h.
Abca4^−/−Rdh8^−/− mice on a C57BL/6J background were generated as previously described. Male and female WT mice with C57BL/6J backgrounds were obtained from The Jackson Laboratory. Abca4^−/−Rdh8^−/− mice used in this study were homozygous for the Leu450 allele of Rpe65 as determined by a genotyping protocol published previously and free of Crb1/rd8 and rd/rd mutations Animals were housed either in the animal facility at the Case Western Reserve University School of Medicine, where they received a standard chow diet (LabDiet 5053) and were maintained under a 12-h light (˜300 lux) and 12-h dark cycle or at the Cole Eye Institute animal facility where they were. Mice were dark adapted overnight prior to all experiments. A cohort of Rdh8^−/−Abca4^−/− or C57BL/6J mice was used when they reached the age of 1 to 2 months, and both sexes were used evenly. All tested primary amines were suspended in 100 μl soybean oil with less than 10% (v/v) DMSO and were administered by oral gavage with a 22-gauge feeding needle. Experimental manipulations in the dark were done under dim red light transmitted through a Kodak No. 1 Safelight Filter (transmittance >560 nm).
After bright light exposure resulting in photoactivation of 95% of rhodopsin, mice were kept in the dark for 6 h. Then, the animals were euthanized and their eyes were collected and homogenized in 10 mM sodium phosphate buffer, pH 7.4, containing 50% methanol (v/v) and 40 mM hydroxylamine. The resulting mixture was extracted with 4 ml of hexanes.
Next, we tested the effects of the MB compound series on retinoid cycle function in the living mouse. […] After the light treatment, mice were allowed to dark adapt for 6 h before their ocular retinoid content was determined by HPLC. […] To examine the possibility that the lack of MB-008 efficacy at 24 h was due to insufficient concentrations resulting from a shorter elimination half-life or poorer bioavailability, we repeated the experiment with the mice subjected to light exposure 4 h after MB-008 administration. A 100 μg dose of MB-008 suppressed visual chromophore regeneration by ˜80%, supporting the idea that the retinal concentration of MB-008 could be sub-effective at the longer post-treatment light challenge.

C57BL/6J mice = assay: in vivo dark-adapted ERG recordings after bleach; design: species or system mouse; conditions: gavage 1 day before bleach, doses indicated effective by retinoid analysis
Procedure: FIG. 5 illustrates ERG responses of mice treated with visual cycle modulators. Oral gavage was used to administer vehicle or MB compounds to mice 24 h prior to 10 min light exposure followed by 6 h of dark adaptation. Dark-adapted ERGs were obtained to strobe flash stimuli.
C57BL/6J mice aged 1.5-4 months were anesthetized with ketamine (80 mg/kg) and xylazine (16 mg/kg) after overnight dark adaptation. Mydriatic eye drops were used to dilate the pupil (1% tropicamide; 2.5% phenylephrine). ERGs were obtained using an active electrode that contacted the corneal surface; needle electrodes placed in the cheek and tail provided reference and ground leads, respectively. Strobe stimuli were presented to the dark-adapted eye in an LKC (Gaithersburg, MD) ganzfeld. Responses were amplified, averaged and stored using an LKC UTAS E-3000 signal averaging system.
Baseline dark-adapted ERGs were recorded from each mouse. After a minimum 1 day interval, MB compounds or vehicle were administered by gavage at 9 a.m. The next morning, mydriatic eye drops were used to dilate the pupils and mice were then exposed to a 10-minute 10,000 lux bleach. Mice were dark-adapted for 6 hours, after which ERGs were recorded.
We next examined the impact of these compounds on retinal function, measured using the electroretinogram (ERG). FIG. 5 presents a family of dark-adapted ERGs measured 6 hours after mice underwent a 95% bleach presented 1 day following gavage administration of vehicle or MB compound molecules at doses indicated to be effective by retinoid analysis. […] In comparison, mice administered with MB compound molecules had had reduced amplitude ERGs indicative of incomplete bleaching recovery. […] In response to higher luminance stimuli, reproducible responses were observed. That these reflect dark-adapted cone-mediated responses is supported by their similarity to responses obtained from transducin KO mice which lack rod-mediated activity, while retaining normal cone-mediated responses, and have a very similar ERG phenotype.

In the case of `CC(C)c1cc(OCC2CCCCC2)cc(C(O)CCN)c1` (stereo not drawn) [MB-005, 3-Amino-1-(3-(cyclohexylmethoxy)-5-isopropylphenyl)propan-1-ol], the “effect on 11-cis-retinal recovery / visual cycle function” value ([1]; 500 μg (0.5 mg/mouse) oral gavage 24 h before light exposure, 6 h dark) is reported as “minimal effects; also recorded: no measurable effect”, the visual cycle function ([1]; 2 mg/mouse oral gavage) is reported as “severely impaired” and the “fold greater inhibition of visual cycle function at 4 h versus 24 h” value ([1]; 4 h versus 24 h between dose and light) is reported as ~3 fold. The “effect of shortening the time between drug administration and the light challenge” value ([1]; shorter interval versus 24 h) was “enhanced the inhibitory effects”, the “inhibition of 11-cis-retinal recovery (suppression of visual chromophore regeneration)” value ([1]; two-fold higher dose than 500 μg (1 mg per mouse), oral gavage 24 h before light exposure) was ~50% and approximately 60% and the “dark-adapted ERG 6 hours after 95% bleach” value (C57BL/6J mice) was “less incomplete recovery”.
